The record followed here is patent US20240269146A1, “USE OF PELABRESIB FOR TREATING ANEMIAS” (Constellation Pharmaceuticals, Inc., priority 2021, published 2024).

The test can be described thus: Pelabresib Form A monohydrate administered to human subjects with myelofibrosis, with or without ruxolitinib (FIG. 1). In kind it is in vivo. Conditions: median starting dose 125 mg QD, max 225 mg QD, median duration 47 weeks. Here is the method: Pelabresib Form A monohydrate was administered to human subjects (with or without ruxolitinib) with a median starting dose of 125 mg QD and a max dose of 225 mg QD for a median duration of 47 weeks. The results of this study are shown in FIG. 1 (Arm 1 being pelabresib Form A and Arm 2 being pelabresib Form A in combination with ruxolitinib).

“Also recorded” adds a separate entry of the source.

On to `Cc1noc2c1-c1ccccc1C(c1ccc(Cl)cc1)=N[C@H]2CC(N)=O` [pelabresib, 2-((4S)-6-(4-chlorophenyl)-1-methyl-4H-benzo[c]isoxazolo[4,5-e]azepin-4-yl)acetamide], for which the hemoglobin result is reported as “improving hemoglobin” and the “reticulocyte count (number of reticulocytes)” value is “increases the number of reticulocytes; also recorded: effective in increasing reticulocytes”.
